Counter-ions that a name gives are not always drawn.
Molecular target: T1, cPLA2 crudely purified from the cytoplasm fraction of U937 (Homo sapiens, UniProt P47712)
T1 construct: cPLA2 crudely purified from the cytoplasm fraction of U937; endogenous in cells; host or cells: U937 cells (cytoplasm fraction, crude purification)
T1 sequence (P47712 1-749): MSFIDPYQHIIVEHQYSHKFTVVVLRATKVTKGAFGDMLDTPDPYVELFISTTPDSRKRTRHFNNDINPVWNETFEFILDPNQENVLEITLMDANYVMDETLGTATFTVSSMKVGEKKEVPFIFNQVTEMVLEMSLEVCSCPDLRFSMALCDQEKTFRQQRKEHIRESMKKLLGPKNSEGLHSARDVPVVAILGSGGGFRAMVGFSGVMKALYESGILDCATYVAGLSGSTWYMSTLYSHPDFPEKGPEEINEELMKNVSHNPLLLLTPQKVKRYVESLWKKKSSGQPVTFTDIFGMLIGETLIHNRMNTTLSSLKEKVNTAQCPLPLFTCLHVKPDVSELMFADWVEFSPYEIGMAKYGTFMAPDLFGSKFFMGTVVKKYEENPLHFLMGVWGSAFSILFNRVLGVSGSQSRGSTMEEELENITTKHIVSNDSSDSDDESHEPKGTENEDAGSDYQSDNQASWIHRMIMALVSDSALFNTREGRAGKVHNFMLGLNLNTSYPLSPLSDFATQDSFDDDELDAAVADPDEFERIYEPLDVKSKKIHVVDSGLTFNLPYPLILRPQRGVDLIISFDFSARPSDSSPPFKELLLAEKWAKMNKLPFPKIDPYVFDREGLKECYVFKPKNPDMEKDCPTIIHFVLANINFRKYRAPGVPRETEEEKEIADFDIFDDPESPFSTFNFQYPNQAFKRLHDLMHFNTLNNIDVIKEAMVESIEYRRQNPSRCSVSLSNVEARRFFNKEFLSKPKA
Experiment: Measurement of cPLA2 inhibitory activity (release of [14C]-arachidonic acid from phosphatidyl choline liposome)
Format: biochemical
Details: cPLA2 from U937 cytoplasm fraction, [14C]arachidonyl-phosphatidyl choline liposome, 37° C., 60 minutes; read-out: cPLA2 inhibitory activity, 50% inhibiting concentration IC50
Method in brief: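 The read-out is radioactivity from extracted [14C]-arachidonic acid, freed over 60 min at 37° C from liposomes of 14C-arachidonyl phosphatidylcholine (10 μM PC in the added solution). Buffer was 50 mM HEPES pH 7.5 with Ca2+, DTT, NaCl and BSA. IC50 was derived from inhibition relative to enzyme control minus no-enzyme control.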

Row | SMILES | IC50
1 | O=C(O)CCc1ccc2c(c1)c(CCc1ccccc1)cn2-c1ccc(OCc2ccccc2)nc1 [Example 199, 3-{1-[6-(benzyloxy)pyridin-3-yl]-3-(2-phenylethyl)-1H-indol-5-yl}propanoic acid] | 0.986 µM
2 | COCCc1ccc(-n2cc(CCc3ccccc3)c3cc(CCC(=O)O)ccc32)cc1 [Example 201, 3-{1-[4-(2-methoxyethyl)phenyl]-3-(2-phenylethyl)-1H-indol-5-yl}propanoic acid] | 0.219 µM
3 | O=C(O)CCc1ccc2c(c1)c(CCc1ccccc1)cn2-c1ccc(C(F)(F)F)cn1 [Example 205, 3-{3-(2-phenylethyl)-1-[5-(trifluoromethyl)pyridin-2-yl]-1H-indol-5-yl}propanoic acid] | 0.133 µM
4 | O=C(O)CCc1ccc2c(c1)c(CCc1ccccc1)cn2-c1ccc(OC2CCCCO2)cc1 (centres unmarked) [Example 213, 3-{3-(2-phenylethyl)-1-[4-(tetrahydro-2H-pyran-2-yloxy)phenyl]-1H-indol-5-yl}propanoic acid] | 0.015 µM
5 | O=C(O)CCc1ccc2c(c1)c(CCc1ccccc1)cn2-c1ccc(OC2CCCCO2)cc1 (centres unmarked) [Example 214, 3-{3-(2-phenylethyl)-1-[4-(tetrahydro-2H-pyran-2-yloxy)phenyl]-1H-indol-5-yl}propanoic acid 2-amino-2-(hydroxymethyl)propane-1,3-diol salt (1:1)] | 0.005 µM
6 | COCc1ccc(-n2cc(CCc3ccccc3)c3cc(CCC(=O)O)ccc32)cc1 [Example 216, 3-{1-[4-(methoxymethyl)phenyl]-3-(2-phenylethyl)-1H-indol-5-yl}propanoic acid] | 0.086 µM
7 | O=C(O)CCc1ccc2c(c1)c(CCc1ccccc1)cn2-c1ccc(CO)cc1 [Example 219, 3-{1-[4-(hydroxymethyl)phenyl]-3-(2-phenylethyl)-1H-indol-5-yl}propanoic acid] | 0.147 µM
8 | O=C(O)CCc1ccc2c(c1)c(CCc1ccccc1)cn2-c1ccc(OCCN2CCCC2)cc1 [Example 223, 3-{3-(2-phenylethyl)-1-[4-(2-pyrrolidin-1-ylethoxy)phenyl]-1H-indol-5-yl}propanoic acid hydrochloride] | 0.057 µM
9 | O=C(O)CCc1ccc2c(c1)c(CCc1ccccc1)cn2-c1ccc(OCCO)cc1 [Example 228, 3-{1-[4-(2-hydroxyethoxy)phenyl]-3-(2-phenylethyl)-1H-indol-5-yl}propanoic acid] | 0.004 µM
10 | O=C(O)/C=C/c1ccc2c(c1)c(CCc1ccccc1)cn2-c1ccc(O)cc1 [Example 239, (2E)-3-[1-(4-hydroxyphenyl)-3-(2-phenylethyl)-1H-indol-5-yl]-2-propenoic acid] | 0.054 µM
11 | O=C(O)CCc1ccc2c(c1)c(CCc1ccccc1)cn2-c1ccc(OCc2ccccn2)cc1 [Example 245, 3-{3-(2-phenylethyl)-1-[4-(pyridin-2-ylmethoxy)phenyl]-1H-indol-5-yl}propanoic acid] | 0.01 µM
12 | O=C(O)CCc1ccc2c(c1)c(CCc1ccccc1)cn2-c1ccc(OCc2ccccn2)cc1 [Example 246, 3-{3-(2-phenylethyl)-1-[4-(pyridin-2-ylmethoxy)phenyl]-1H-indol-5-yl}propanoic acid hydrochloride] | 0.007 µM
13 | O=C(O)CCc1ccc2c(c1)c(CCc1ccccc1)cn2-c1ccc(OCCc2ccccn2)cc1 [Example 251, 3-{3-(2-phenylethyl)-1-[4-(2-pyridin-2-ylethoxy)phenyl]-1H-indol-5-yl}propanoic acid] | 0.009 µM
14 | O=C(O)CCc1ccc2c(c1)c(CCc1ccccc1)cn2-c1ccc(OCCc2cccnc2)cc1 [Example 253, 3-{3-(2-phenylethyl)-1-[4-(2-pyridin-3-ylethoxy)phenyl]-1H-indol-5-yl}propanoic acid] | 0.014 µM
15 | O=C(O)CCc1ccc2c(c1)c(CCc1ccccc1)cn2-c1ccc(OCCc2ccncc2)cc1 [Example 255, 3-{3-(2-phenylethyl)-1-[4-(2-pyridin-4-ylethoxy)phenyl]-1H-indol-5-yl}propanoic acid] | 0.012 µM
16 | O=C(O)CCc1ccc2c(c1)c(CCc1ccccc1)cn2-c1ccc(OCCCc2cccnc2)cc1 [Example 257, 3-{3-(2-phenylethyl)-1-[4-(3-pyridin-3-ylpropoxy)phenyl]-1H-indol-5-yl}propanoic acid] | 0.007 µM

Now from value to compound:

Row | IC50 | SMILES
17 | 0.157 µM | COCC(=O)Nc1ccc(-n2cc(CCc3ccccc3)c3cc(CCC(=O)O)ccc32)cc1 [Example 197, 3-[1-{4-[(methoxyacetyl)amino]phenyl}-3-(2-phenylethyl)-1H-indol-5-yl]propanoic acid]
18 | 0.01 µM | COCCOc1ccc(-n2cc(CCc3ccccc3)c3cc(CCC(=O)O)ccc32)cc1 [Example 203, 3-{1-[4-(2-methoxyethoxy)phenyl]-3-(2-phenylethyl)-1H-indol-5-yl}propanoic acid]
19 | 0.064 µM | O=C(O)CCc1ccc2c(c1)c(CCc1ccccc1)cn2-c1ccc(C(F)(F)F)cc1 [Example 207, 3-{3-(2-phenylethyl)-1-[4-(trifluoromethyl)phenyl]-1H-indol-5-yl}propanoic acid]
20 | 0.244 µM | O=C(O)CCc1ccc2c(c1)c(CCc1ccccc1)cn2-c1ccc(CCO)cc1 [Example 209, 3-{1-[4-(2-hydroxyethyl)phenyl]-3-(2-phenylethyl)-1H-indol-5-yl}propanoic acid]
21 | 0.79 µM | COc1ccc(-n2cc(CCc3ccccc3)c3cc(CCC(=O)O)ccc32)cc1OC [Example 211, 3-[1-(3,4-dimethoxyphenyl)-3-(2-phenylethyl)-1H-indol-5-yl]propanoic acid]
22 | 0.146 µM | O=C(O)CCc1ccc2c(c1)c(CCc1ccccc1)cn2-c1ccc(CO)cc1 [Example 220, 3-{1-[4-(hydroxymethyl)phenyl]-3-(2-phenylethyl)-1H-indol-5-yl}propanoic acid 2-amino-2-(hydroxymethyl)propane-1,3-diol salt (1:1)]
23 | 0.049 µM | O=C(O)CCc1ccc2c(c1)c(CCc1ccccc1)cn2-c1ccc(OCCN2CCCC2)cc1 [Example 222, 3-{3-(2-phenylethyl)-1-[4-(2-pyrrolidin-1-ylethoxy)phenyl]-1H-indol-5-yl}propanoic acid]
24 | 0.008 µM | O=C(O)CCc1ccc2c(c1)c(CCc1ccccc1)cn2-c1ccc(OC2CCOCC2)cc1 [Example 225, 3-{3-(2-phenylethyl)-1-[4-(tetrahydro-2H-pyran-4-yloxy)phenyl]-1H-indol-5-yl}propanoic acid]
25 | 0.082 µM | O=C(O)CCc1ccc2c(c1)c(CCc1ccccc1)cn2-c1ccc2c(c1)OCCO2 [Example 233, 3-[1-(2,3-dihydro-1,4-benzodioxin-6-yl)-3-(2-phenylethyl)-1H-indol-5-yl]propanoic acid 2-amino-2-(hydroxymethyl)propane-1,3-diol salt (1:1)]
26 | 0.122 µM | O=C(O)CCc1ccc2c(c1)c(CCc1ccccc1)cn2-c1ccc(Cc2ccccn2)cc1 [Example 235, 3-{3-(2-phenylethyl)-1-[4-(pyridin-2-ylmethyl)phenyl]-1H-indol-5-yl}propanoic acid hydrochloride]
27 | 0.193 µM | O=C(O)CCc1ccc2c(c1)c(CCc1ccccc1)cn2-c1ccc(Cc2ccncc2)cc1 [Example 237, 3-{3-(2-phenylethyl)-1-[4-(pyridin-4-ylmethyl)phenyl]-1H-indol-5-yl}propanoic acid hydrochloride]
28 | 0.004 µM | O=C(O)CCc1ccc2c(c1)c(CCc1ccccc1)cn2-c1ccc(OCC2CCCCO2)cc1 (centres unmarked) [Example 243, 3-{3-(2-phenylethyl)-1-[4-(tetrahydro-2H-pyran-2-ylmethoxy)phenyl]-1H-indol-5-yl}propanoic acid 2-amino-2-(hydroxymethyl)propane-1,3-diol salt (1:1)]
29 | 0.007 µM | O=C(O)CCc1ccc2c(c1)c(CCc1ccccc1)cn2-c1ccc(OCc2cccnc2)cc1 [Example 248, 3-{3-(2-phenylethyl)-1-[4-(pyridin-3-ylmethoxy)phenyl]-1H-indol-5-yl}propanoic acid]
30 | 0.026 µM | O=C(O)CCc1ccc2c(c1)c(CCc1ccccc1)cn2-c1ccc(OCc2cccnc2)cc1 [Example 249, 3-{3-(2-phenylethyl)-1-[4-(pyridin-3-ylmethoxy)phenyl]-1H-indol-5-yl}propanoic acid hydrochloride]
31 | 0.002 µM | O=C(O)CCc1ccc2c(c1)c(CCc1ccccc1)cn2-c1ccc(OCCCc2cccnc2)cc1 [Example 258, 3-{3-(2-phenylethyl)-1-[4-(3-pyridin-3-ylpropoxy)phenyl]-1H-indol-5-yl}propanoic acid hydrochloride]
32 | 0.008 µM | O=C(O)CCc1ccc2c(c1)c(CCc1ccccc1)cn2-c1ccc(OCCCc2ccncc2)cc1 [Example 260, 3-{3-(2-phenylethyl)-1-[4-(3-pyridin-4-ylpropoxy)phenyl]-1H-indol-5-yl}propanoic acid]

— patent US8293781B2, “Indole derivatives having cPLA2 inhibiting activity and applications and production methods of the same” (Daiichi Sankyo Company, Limited, priority 2007, dated 2012)
